Read-outs that look alike come from different tables or passages of the source. Some results are limits rather than exact numbers.

The subject of assay [1] is HCT116 MTAP+/+. Nature of the assay: Inhibition of cellular proliferation (Cell Titer Glo), HCT116 MTAP+/+. In kind it is cell-based. Particulars: Homo sapiens, HCT-116, 96 h, 4 days, read-out: 4 Day Relative Growth Inhibition (MTAP +/+). Here is the method: (§1) Test compound impact on cancer cell growth was assessed by treating cancer cells with compound for 4 days and then measuring proliferation using an ATP-based cell proliferation readout (Cell Titer Glo, Promega Corporation).
(§2) In a typical assay an isogenic pair of HCT116 human colon carcinoma cell lines which vary only in MTAP deletion status (HCT116 MTAP+/+ and HCT116 MTAP−/−) were plated in 96-well dishes at appropriate cell density. Following 24 hours, cells were then treated with the candidate MAT2A inhibitor. Prior to addition to cells, the compound was first serially diluted in 100% DMSO, typically as a 3-fold serial dilution starting at 500× top dose with 10 dose points including DMSO only control. Compound was then transferred to a working stock plate in cell culture media by adding 5 μL of compound in DMSO to 495 μL of cell culture media. This working stock was then added to cells via a further 5-fold dilution, by adding 25 μL of working stock to 100 μL of cells in culture media. Following compound addition, cells were incubated at 37° C./5% CO2 for 4 days.
(§3) To measure inhibition of cellular proliferation, cells were allowed to equilibrate to room temperature for 30 minutes, and were then treated with 125 μL of Cell Titer Glo reagent. The plate was then covered with aluminum foil and shaken for 15 minutes to ensure complete mixing and full cell lysis. Luminescent signal was then measured using a plate-based luminometer Veritas version 1.9.2 using ATP standard curve to confirm assay reproducibility from run to run. This luminescence measure was converted to a proliferation index by subtracting from each data point the ATP luminescence signal measured from a bank (no cells) well and dividing by the ATP luminescence signal measured in 0.2% DMSO control well adjusted for signal in blank well. Compound activity was then represented as a percentage change in proliferation relative to a within-plate DMSO control against log 10 of compound concentration in molar (M) units.
Background: ATP-based viability assays read luminescence as a measure of living cells.

In assay [2] the target is T1, MAT2A homodimer (Homo sapiens, UniProt P31153).
T1 construct: inferred from Ni sepharose purification and imidazole elution; made in house; host or cells: SF9 insect cells, recombinant baculovirus (Bac to Bac, pFASTBAC1)
The experiment in a line: MAT2A biochemical assay (phosphate release, PiColorLock Gold). The following applies: recombinant MAT2A homodimer, 60 min pre-incubation, 25° C.; read-out: Enzyme Inhibition. On the procedure: Mat2A protein was expressed by recombinant baculovirus in SF9 infected cells using the Bac to Bac system cloned into the pFASTBAC1 vector (Invitrogen, Carlsbad, CA). Recombinant MAT2A was isolated from the cell lysate of 150 g of infected cells using HP Ni sepharose column chromatography. Recombinant MAT2A homodimer was eluted with 250 and 500 mM imidazole, and fractions containing MAT2A were identified by sodium dodecyl sulfate polyacrylamide gel electrophoresis and pooled.
For determination of the inhibitory potency of compounds against the MAT2A homodimer, protein was diluted to 4 μg/mL in assay buffer (50 mM Tris, pH 8.0, 50 mM KCl, 15 mM MgCl2, 0.3 mM EDTA, 0.005% [w/v] bovine serum albumin [BSA]). Test compound was prepared in 100% dimethyl sulfoxide (DMSO) at 50× the desired final concentration. A 1 μL volume of compound dilution was added to 40 μL of enzyme dilution and the mixture was allowed to equilibrate for 60 minutes at 25° C. The enzymatic assay was initiated by the addition of 10 μL of substrate mix (500 μM ATP, pH 7.0, 400 μM L-methionine in 1× assay buffer), and the mixture was incubated for a further 60 minutes at 25° C. The reaction was halted and the liberated phosphate released by the enzyme in stoichiometric amounts by the production of S-adenosyl methionine (SAM) was measured using the PiColorLock Gold kit (Innova Biosciences, UK). Absolute product amounts were determined by comparison to a standard curve of potassium phosphate buffer, pH 8.0.

Assay [3] has as its system MAT2A activity (SAM) in HCT116 cells with deleted MTAP gene. Nature of the assay: Cellular assay of target engagement (SAM) by LC-MS/MS. In kind it is cell-based. Particulars: Homo sapiens, read-out: Cell 72 h SAM Inhibition (MTAP −/−). Here is the method: Measurement of MAT2A activity in cells was made by direct quantitation of the abundance of the product of its enzymatic activity, SAM. Cancer cells were treated with candidate MAT2A inhibitors for a suitable incubation period, and the cells were then lysed using a reagent which quenched any further enzyme activity. Soluble metabolites including SAM were collected and SAM itself was directly measured from the lysate using quantitative LC-MS/MS.
A typical assay was performed using an HCT116 human colon carcinoma cell line which was genetically engineered to delete the MTAP gene (commercially available from Horizon Discovery). This cell line was utilized because it was determined that loss of the MTAP gene predicts sensitivity to MAT2A inhibitors. Cells were plated in 96-well dishes at appropriate cell density. Following 24 hours, cells were then treated with the candidate MAT2A inhibitor. Prior to addition to cells, the compound was first serially diluted in 100% DMSO, typically as a 3-fold serial dilution starting at 500× top dose with 10 dose points including DMSO only control. Compound was then transferred to a working stock plate in cell culture media by adding 5 μL of compound in DMSO to 495 μL of cell culture media. This working stock was then added to cells via a further 5-fold dilution, by adding 25 μL of working stock to 100 μL of cells in culture media. Following compound addition, cells were incubated at 37° C./5% CO2 for 72 hrs.
To quantitate SAM levels following compound treatment, cells were gently washed once in ammonium carbonate buffer (75 mM at pH 7.4), placed on dry ice, and lysed with metabolite extraction buffer (80% cold methanol and 20% water (v/v) with acetic acid at 1M final concentration with 200 ng/mL deuterated d3-SAM as internal control). Following centrifugation at 4° C. at 3,200 rpm for 30 minutes, the supernatant was collected and stored at −80° C. until analysis by Liquid Chromatography with tandem Mass Spectrometry (LC-MS/MS). LC-MS/MS analysis was performed using an API6500 Mass Spectrometer (Sciex, Framingham, MA, USA) operating in positive ion spray mode and equipped with a Waters UPLC Acquity (Waters, Milford, MA, USA) BEH Amide column. Multiple Reaction Monitoring data was acquired for SAM and the d3-SAM standard, using a mass transition pair at m/z 399.2→250.1 and 402.2→250.1, respectively. In a typical LC-MS/MS analysis, the initial flow rate was 0.5 ml/min of 25% mobile phase A (acetonitrile and water at 5:95 (v/v) with 1% formic acid and 10 mM ammonium acetate) and 75% mobile phase B (acetonitrile and water at 95:5 (v/v) with 1% formic acid and 10 mM ammonium acetate), 0.2-0.5 minutes with 75%-35% mobile phase B, 25%-65% mobile phase A, at 0.5 min 65% mobile phase A and 35% mobile phase B, 1.0-1.1 minutes with 35%-75% mobile phase B, 65%-25% mobile phase A, at 1.1 min 25% mobile phase A and 75% mobile phase B with a total run time of 1.5 minutes.

The test system of assay [4] is HCT116 MTAP−/−. Nature of the assay: Inhibition of cellular proliferation (Cell Titer Glo), HCT116 MTAP-/-. In kind it is cell-based. The following applies: Homo sapiens, HCT-116, 96 h, 4 days, read-out: 4 Day Relative Growth Inhibition (MTAP −/−). Here is the method:
as §1, §2, §3

Where [5] appears, read: HCT-116, HCT116 MTAP −/−, 72 hrs.

T1 sequence (P31153 whole entry): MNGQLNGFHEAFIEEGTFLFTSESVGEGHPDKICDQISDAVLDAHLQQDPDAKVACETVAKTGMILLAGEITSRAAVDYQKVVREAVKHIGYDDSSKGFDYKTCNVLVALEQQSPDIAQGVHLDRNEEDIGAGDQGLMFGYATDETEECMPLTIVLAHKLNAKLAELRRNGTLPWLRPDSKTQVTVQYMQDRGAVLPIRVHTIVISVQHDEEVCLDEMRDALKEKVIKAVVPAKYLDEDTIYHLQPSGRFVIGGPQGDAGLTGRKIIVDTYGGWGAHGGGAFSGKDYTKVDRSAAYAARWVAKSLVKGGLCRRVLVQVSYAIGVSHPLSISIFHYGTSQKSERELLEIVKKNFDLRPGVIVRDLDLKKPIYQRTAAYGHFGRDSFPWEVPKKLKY

As to `Cn1cc2cc(-n3nc4ccc(OCC(F)F)nc4c(-c4ccc(OC(F)F)cc4)c3=O)ccc2n1` [Example 125, 6-(2,2-difluoroethoxy)-4-(4-(difluoromethoxy)phenyl)-2-(2-methyl-2H-indazol-5-yl)pyrido[3,2-c]pyridazin-3(2H)-one], the IC50 in assay [1] was 100 to 1000 nM; in assay [2], under 100 nM; in assay [3] (setting [5]), under 100 nM; in assay [4] it was under 100 nM.

As to `Cn1cc2cc(-n3nc4ccc(OCC(F)F)nc4c(-c4ccc(OC(F)F)nc4)c3=O)ccc2n1` [Example 126], the IC50 in assay [1] was at least 1000 nM; in assay [2], under 100 nM; in assay [3] (setting [5]), under 100 nM; in assay [4] it was under 100 nM.

As to `CCOc1ccc2nn(-c3ccc4nn(C)cc4c3)c(=O)c(-c3ccc(C(F)(F)F)nc3)c2n1` [Example 127], the IC50 is at least 1000 nM in assay [1], under 100 nM in assay [2], under 100 nM in assay [3] (setting [5]) and under 100 nM in assay [4].

On to `Cn1cc2cc(-n3nc4ccc(OCC(F)F)nc4c(-c4ccc(OC(F)(F)F)nc4)c3=O)ccc2n1` [Example 128], for which the IC50 is at least 1000 nM in assay [1], under 100 nM in assay [2], under 100 nM in assay [3] (setting [5]) and under 100 nM in assay [4].

Turning to `Cn1cc2cc(-n3nc4ccc(OCCF)nc4c(-c4ccc(OC(F)F)cc4)c3=O)ccc2n1` [Example 129], the IC50 in assay [1] is at least 1000 nM; in assay [2], under 100 nM; in assay [3] (setting [5]) it was under 100 nM; in assay [4] it was under 100 nM.

As to `COc1ccc(-c2c(=O)n(-c3ccc4nn(C)cc4c3)nc3ccc(OCC(F)F)nc23)cn1` [Example 130], the IC50 in assay [1] was 100 to 1000 nM; in assay [2], under 100 nM; in assay [3] (setting [5]), under 100 nM; in assay [4], under 100 nM.

On to `Cn1cc2cc(-n3nc4ccc(OCC5CCC5)nc4c(-c4ccc(OC(F)F)cc4)c3=O)ccc2n1` [Example 131], for which the IC50 is at least 1000 nM in assay [1], under 100 nM in assay [2], 100 to 1000 nM in assay [3] (setting [5]) and at least 1000 nM in assay [4].

For `Cn1cc2cc(-n3nc4ccc(OCCC(F)(F)F)nc4c(-c4ccc(OC(F)F)cc4)c3=O)ccc2n1` [Example 132], the IC50 was at least 1000 nM in assay [1], under 100 nM in assay [2], 100 to 1000 nM in assay [3] (setting [5]) and 100 to 1000 nM in assay [4].

Regarding `Cn1cc2cc(-n3nc4ccc(OCC(F)F)nc4c(-c4ccccc4)c3=O)ccc2n1` [Example 133], the IC50 in assay [1] was at least 1000 nM; in assay [2] it was under 100 nM; in assay [3] (setting [5]) it was under 100 nM; in assay [4], 100 to 1000 nM.

`Cn1cc2cc(-n3nc4ccc(OCC(F)F)nc4c(-c4ccncc4)c3=O)ccc2n1` [Example 134]: the IC50 was at least 1000 nM in assay [1], under 100 nM in assay [2], 100 to 1000 nM in assay [3] (setting [5]) and at least 1000 nM in assay [4].

As to `CCOc1ccc2nn(-c3ccc(OC)cc3)c(=O)c(-c3ccc(OC(F)F)cc3)c2n1` [Example 135], the IC50 in assay [1] was at least 1000 nM; in assay [2], under 100 nM; in assay [3] (setting [5]), under 100 nM; in assay [4], 100 to 1000 nM.

With `CCOc1ccc2nn(-c3ccc(OC)cc3)c(=O)c(-c3ccc(OC(F)(F)F)nc3)c2n1` [Example 136], the IC50 was at least 1000 nM in assay [1], under 100 nM in assay [2], 100 to 1000 nM in assay [3] (setting [5]) and 100 to 1000 nM in assay [4].

In the case of `Cn1cc2cc(-n3nc4ccc(OCC5CC5)nc4c(-c4ccc(OC(F)F)cc4)c3=O)ccc2n1` [Example 137], the IC50 in assay [1] was at least 1000 nM; in assay [2], under 100 nM; in assay [3] (setting [5]) it was under 100 nM; in assay [4], under 100 nM.

In the case of `CC(C)Oc1ccc2nn(-c3ccc4nn(C)cc4c3)c(=O)c(-c3ccc(OC(F)F)cc3)c2n1` [Example 138], the IC50 is at least 1000 nM in assay [1], under 100 nM in assay [2], under 100 nM in assay [3] (setting [5]) and under 100 nM in assay [4].

With `[2H]C([2H])([2H])Oc1ccc(-c2c(=O)n(-c3ccc4nn(C)cc4c3)nc3ccc(OCC(F)F)nc23)cn1` [Example 139], the IC50 in assay [1] is 100 to 1000 nM; in assay [2], under 100 nM; in assay [3] (setting [5]) it was under 100 nM; in assay [4], under 100 nM.

For the compound `Cn1cc2cc(-n3nc4ccc(OCC(F)F)nc4c(-c4cccc(Cl)c4)c3=O)ccc2n1` [Example 140], the IC50 in assay [1] was at least 1000 nM; in assay [2], under 100 nM; in assay [3] (setting [5]), 100 to 1000 nM; in assay [4] it was under 100 nM.

As for `CC(C)COc1ccc2nn(-c3ccc4nn(C)cc4c3)c(=O)c(-c3ccc(OC(F)F)cc3)c2n1` [Example 141], the IC50 in assay [1] was at least 1000 nM; in assay [2], under 100 nM; in assay [3] (setting [5]), under 100 nM; in assay [4] it was 100 to 1000 nM.

In the case of `Cn1cc2cc(-n3nc4c(COC5CCCCO5)cc(OCC(F)F)nc4c(-c4ccc(OC(F)F)cc4)c3=O)ccc2n1` (stereo not shown) [Example 142, 6-(2,2-difluoroethoxy)-4-(4-(difluoromethoxy)phenyl)-2-(2-methyl-2H-indazol-5-yl)-8-(((tetrahydro-2H-pyran-2-yl)oxy)methyl)pyrido[3,2-c]pyridazin-3(2H)-one], the IC50 was at least 1000 nM in assay [1]; under 100 nM in assay [2]; 100 to 1000 nM in assay [3] (HCT-116, 72 h); 100 to 1000 nM in assay [4].

Take `O=c1c(-c2ccc(Cl)cc2)c2nc(OCC(F)F)ccc2nn1-c1ccc2ncsc2c1` [Example 143]: the IC50 was at least 1000 nM in assay [1], under 100 nM in assay [2], under 100 nM in assay [3] (setting [5]) and under 100 nM in assay [4].

These data come from patent publication US12077534B2, “Aza-heterobicyclic inhibitors of MAT2A and methods of use for treating cancer” (Les Laboratoires Servier SAS, priority 2018, dated 2024).
